Reference: the NIST ThermoML archive (doi:10.1016/j.jct.2007.11.011)

Test: xn = mol fraction of the nth substance listed
Conditions: Liquid

CCOS(=O)(=O)[O-].CCn1cc[n+](C)c1 [1-ethyl-3-methylimidazolium ethyl sulfate] + CO
mass density [kg/m3]
Conditions	100 kPa	2500 kPa	5000 kPa	10000 kPa	15000 kPa	20000 kPa	25000 kPa	30000 kPa	35000 kPa
323.15 K, x1 = 0.04781	–	–	–	868.74	872.87	876.82	880.61	884.24	887.77
323.15 K, x1 = 0.1026	–	–	–	942.8	946.41	949.87	953.21	956.44	959.59
323.15 K, x1 = 0.1977	–	–	1024.01	1027.14	1030.2	1033.16	1036.04	1038.84	1041.58
323.15 K, x1 = 0.2432	–	–	1052.99	1055.97	1058.89	1061.72	1064.46	1067.16	1069.79
323.15 K, x1 = 0.3026	–	–	1084.11	1086.92	1089.69	1092.38	1094.99	1097.52	1100.04
323.15 K, x1 = 0.3887	–	–	1118.22	1120.88	1123.48	1126.02	1128.5	1130.9	1133.28
323.15 K, x1 = 0.485	–	–	1146.43	1148.93	1151.4	1153.83	1156.17	1158.47	1160.75
323.15 K, x1 = 0.589	–	–	1169.35	1171.75	1174.11	1176.44	1178.7	1180.91	1183.11
323.15 K, x1 = 0.7289	–	–	1192.7	1194.99	1197.27	1199.49	1201.68	1203.82	1205.91
323.15 K, x1 = 0.8521	–	–	1207.44	1209.67	1211.88	1214.04	1216.15	1218.23	1220.28
323.15 K, x1 = 0.9397	–	–	1217.06	1219.28	1221.46	1223.61	1225.7	1227.76	1229.79
333.15 K, x1 = 0.04781	850.98	853.34	855.7	860.18	864.49	868.61	872.54	876.32	879.95
333.15 K, x1 = 0.1026	926.85	928.81	930.83	934.71	938.46	942.07	945.55	948.89	952.14
333.15 K, x1 = 0.1977	1012.95	1014.54	1016.23	1019.48	1022.66	1025.73	1028.71	1031.6	1034.42
333.15 K, x1 = 0.2432	1042.28	1043.81	1045.4	1048.48	1051.51	1054.43	1057.29	1060.06	1062.76
333.15 K, x1 = 0.3026	1073.72	1075.11	1076.58	1079.47	1082.32	1085.07	1087.76	1090.37	1092.96
333.15 K, x1 = 0.3887	1108.15	1109.48	1110.88	1113.59	1116.27	1118.87	1121.41	1123.9	1126.35
333.15 K, x1 = 0.485	1136.7	1137.95	1139.28	1141.86	1144.4	1146.86	1149.29	1151.66	1153.97
333.15 K, x1 = 0.589	1159.94	1161.11	1162.35	1164.82	1167.24	1169.62	1171.94	1174.22	1176.46
333.15 K, x1 = 0.7289	1183.49	1184.59	1185.79	1188.13	1190.47	1192.77	1194.98	1197.18	1199.35
333.15 K, x1 = 0.8521	1198.51	1199.19	1200.35	1202.62	1204.87	1207.1	1209.26	1211.4	1213.49
333.15 K, x1 = 0.9397	1207.93	1209.04	1210.2	1212.45	1214.69	1216.87	1219.03	1221.13	1223.21
